This test addresses T1, Mitogen-activated protein kinase kinase kinase 5 (Homo sapiens, UniProt Q99683).
T1 sequence (Q99683 whole entry): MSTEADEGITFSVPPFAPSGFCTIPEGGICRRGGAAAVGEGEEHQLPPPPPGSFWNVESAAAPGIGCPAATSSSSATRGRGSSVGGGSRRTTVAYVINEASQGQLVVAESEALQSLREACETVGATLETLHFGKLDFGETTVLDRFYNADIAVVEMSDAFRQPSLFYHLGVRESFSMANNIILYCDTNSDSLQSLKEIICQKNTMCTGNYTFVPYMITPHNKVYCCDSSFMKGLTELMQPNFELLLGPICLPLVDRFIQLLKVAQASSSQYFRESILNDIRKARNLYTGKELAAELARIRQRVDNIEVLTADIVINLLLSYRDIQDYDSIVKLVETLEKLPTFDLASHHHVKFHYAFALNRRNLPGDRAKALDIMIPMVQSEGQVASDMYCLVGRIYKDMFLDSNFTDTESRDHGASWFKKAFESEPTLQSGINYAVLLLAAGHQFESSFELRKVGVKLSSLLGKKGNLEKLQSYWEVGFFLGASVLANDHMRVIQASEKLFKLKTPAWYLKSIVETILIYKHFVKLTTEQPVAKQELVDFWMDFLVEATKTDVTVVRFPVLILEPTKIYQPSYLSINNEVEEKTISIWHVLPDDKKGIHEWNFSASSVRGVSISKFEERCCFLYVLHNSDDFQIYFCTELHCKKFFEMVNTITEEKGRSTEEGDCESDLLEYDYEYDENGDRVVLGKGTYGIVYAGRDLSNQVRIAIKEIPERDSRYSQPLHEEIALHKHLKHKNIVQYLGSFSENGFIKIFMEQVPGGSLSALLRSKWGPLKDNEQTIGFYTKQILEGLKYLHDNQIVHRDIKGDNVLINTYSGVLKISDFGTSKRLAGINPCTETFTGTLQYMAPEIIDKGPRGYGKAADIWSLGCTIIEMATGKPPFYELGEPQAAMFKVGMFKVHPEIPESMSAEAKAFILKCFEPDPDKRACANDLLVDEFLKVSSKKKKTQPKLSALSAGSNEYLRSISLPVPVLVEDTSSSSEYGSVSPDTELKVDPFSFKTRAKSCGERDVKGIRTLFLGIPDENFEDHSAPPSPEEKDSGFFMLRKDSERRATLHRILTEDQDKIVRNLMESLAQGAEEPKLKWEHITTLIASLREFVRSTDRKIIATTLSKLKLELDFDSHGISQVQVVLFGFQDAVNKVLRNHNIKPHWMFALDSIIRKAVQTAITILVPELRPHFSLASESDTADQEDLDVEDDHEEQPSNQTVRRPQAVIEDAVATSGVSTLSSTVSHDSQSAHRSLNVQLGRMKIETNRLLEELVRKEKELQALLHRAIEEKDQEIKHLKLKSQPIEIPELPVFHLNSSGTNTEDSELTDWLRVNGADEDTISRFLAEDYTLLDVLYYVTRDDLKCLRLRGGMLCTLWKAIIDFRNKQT
As to the kind of experiment: Inhibition of ASK1 (unknown origin).

With `CC(C)n1cnnc1-c1cccc(NC(=O)Nc2cnc3ccccn23)n1`, the IC50 was more than 10000 nM.

The molecule `CC(C)n1cnnc1-c1cccc(NC(=O)Nc2ccn[nH]2)n1` displayed a half-inhibitory concentration (IC50) of 66.7 nM.

The molecule `CC(C)n1cnnc1-c1cccc(NC(=O)Nc2ccc(-c3cnn(C)c3)cn2)n1` gave an IC50 of 64.2 nM. Regarding `CC(C)n1cnnc1-c1cccc(NC(=O)Nc2cnccn2)n1`, the midpoint of inhibition, the IC50, lay at 90.3 nM. For `CC(C)n1cnnc1-c1cccc(NC(=O)Nc2cncc3ccccc23)n1` the value was more than 10000 nM; for `CC(C)OC(=O)Nc1cccc(-c2nncn2C(C)C)n1`, 473 nM. The figure for `CC(C)n1cnnc1-c1cccc(NC(=O)Nc2ccc(-c3cnn(C)c3)cc2)n1` is 245 nM; for `Cc1cc(NC(=O)Nc2cccc(-c3nncn3C(C)C)n2)[nH]n1` it is 142 nM; for `CC(C)n1cnnc1-c1cccc(NC(=O)Nc2cc(C3CC3)n[nH]2)n1` it is 124 nM. The figure for `CC(C)n1cnnc1-c1cccc(NC(=O)NCc2ccccc2)n1` is 7020 nM. In turn, `CC(C)n1cnnc1-c1cccc(NC(=O)Nc2cc(C3CC3)nn2C)n1` showed an IC50 of more than 10000 nM.

For `CC(C)n1cnnc1-c1cccc(NC(=O)Nc2ccccc2)n1`, the IC50 was 2840 nM.

As to `CC(C)n1cnnc1-c1cccc(NC(=O)Oc2ccccc2)n1`, the IC50 was more than 10000 nM.

The molecule `CC(C)n1cnnc1-c1cccc(NC(=O)Nc2cccc(-c3cnn(C)c3)c2)n1` returned an IC50 of 2120 nM. `CC(C)n1cnnc1-c1cccc(NC(=O)N(C)c2ccc3ccccc3n2)n1` came in with an IC50 of 319 nM. In turn, `CC(C)n1cnnc1-c1cccc(N(C)C(=O)N(C)c2cc3ccccn3n2)n1` had an IC50 of 6640 nM. For `CC(C)n1cnnc1-c1cccc(NC(=O)OCc2ccccc2)n1` the value was 1520 nM; for `CC(C)n1cnnc1-c1cccc(NC(=O)Nc2ccncc2)n1`, 337 nM; for `CC(C)n1cnnc1-c1cccc(NC(=O)Nc2nn(C)c3ccccc23)n1`, 259 nM.

On to `CC(C)n1cnnc1-c1cccc(NC(=O)Nc2cccnc2)n1`, for which the IC50 was 1210 nM. For `CC(C)n1cnnc1-c1cccc(NC(=O)Nc2ccnc3ccccc23)n1` the value was 3260 nM; for `Cc1cc(NC(=O)Nc2cccc(-c3nncn3C(C)C)n2)n(C)n1`, 4140 nM; for `CC(C)n1cnnc1-c1cccc(NC(=O)Nc2cnn3ccccc23)n1`, 3650 nM. For `CC(C)n1cnnc1-c1cccc(NC(=O)Nc2nc3ccccc3[nH]2)n1` the value was 111 nM; for `CCc1cc(NC(=O)Nc2cccc(-c3nncn3C(C)C)n2)[nH]n1`, 153 nM; for `Cc1cc(NC(=O)Nc2cccc(-c3nncn3C(C)C)n2)nn1C`, 143 nM. For `CC(C)c1cc(NC(=O)Nc2cccc(-c3nncn3C(C)C)n2)[nH]n1` the value was 393 nM.

As for `CC(C)n1cnnc1-c1cccc(NC(=O)Nc2cnn(C)c2)n1`, the 50% inhibitory concentration (IC50) was 1860 nM.

These data come from ChEMBL document CHEMBL4680251, “Discovery of a 2-pyridinyl urea-containing compound YD57 as a potent inhibitor of apoptosis signal-regulating kinase 1 (ASK1)” (Eur J Med Chem, 2020).
